This is an account of results in publication PMC7730961, “Discovery of Novel Dual Extracellular Regulated Protein Kinases (ERK) and Phosphoinositide 3-Kinase (PI3K) Inhibitors as a Promising Strategy for Cancer Therapy” (Molecules, 2020).

One may read the inhibition as the relative decrease from the control value, in per cent. For orientation: IC50 means the concentration at which inhibition is half-maximal.

Where a name gives a salt, the structure may show the parent alone.

Data set [1] concerns the target ERK 2 (Homo sapiens, UniProt P28482). Put plainly: Enzymatic inhibition assay (ADP-Glo Plus luminescence kinase assay), ERK2. The class given is biochemical. To be noted: for inhibition at 1 µM: 1 μM (1000 nM) compound. The method, then:
(§1) All compounds were diluted in 10% DMSO and tested in 10-dose with 3-fold serial dilution starting at a concentration of 1 μM. Of the dilution, 5 µL was added to a 50 µL reaction so that the final concentration of DMSO is 1% in all of reactions. After all of the reaction mixtures were conducted at 30 °C for 40 min, the assay was performed using ADP-Glo Plus luminescence kinase assay kit. The luminescence signal and the intensity of the luminescence signal value were detected using a multi-well spectrophotometer (the MD-SpectraMax M5 multifunctional microplate reader). It was directly proportional to the inhibition of enzyme activity.
Background: In ADP-Glo the light output rises with the ADP produced.

In data set [2] the target is PI3Kα (Homo sapiens, UniProt P42336). In words: Enzymatic inhibition assay (ADP-Glo Plus luminescence kinase assay), PI3Kα. Type of data set: biochemical. To be noted: for inhibition at 1 µM: 1 μM (1000 nM) compound. The method, then:
as §1, with “The 50 µL reaction mixture contains 40 mM Tris-HCl, pH 7.4, 10 µM ATP, 10 mM MgCl2, 0.1 mg/mL BSA, 1 mM DTT, 0.2 ug/mL ERK 2, ERK 1, PI3Kα, PI3Kβ, PI3Kγ or PI3Kδ and 100 uM lipid substrate. All” for “All”, “activity. The experimental results were converted into active percentages, a dose-response curve is drawn, and the IC50 value of inhibition was calculated using […] PRISM 5 nonlinear regression.” for “activity.”

The subject of data set [3] is HEC1B. In words: Anti-proliferation assay (MTT, 72 h), HEC1B. The class given is cell-based. The conditions noted are these: Homo sapiens, HEC-1B, HEC1B cells. The method, then: (§2) Human cancer cell lines HCT116 and HEC1B were cultured in media with 10% FBS (GIBCO, Invitrogen Corporation, NY, USA) at 37 °C in a 5% (v/v) CO2 humidified incubator. The logarithmic growth phase cells were seeded in a 96-well plate with a density of 1 × 10^5 cells/mL, cultured at 37 °C, 5% CO2. Until the cells were 90% confluent, the medium containing compound was added to incubate for 72 h, and then the cell viability was tested by MTT analysis. Taking the drug concentration as the abscissa and the percentage of proliferation inhibitory activity corresponding to each concentration as the ordinate, using Graphpad Prism 5 to do nonlinear regression, the IC50 value of each compound was calculated.

For data set [4], the system named is HCT116. Put plainly: Anti-proliferation assay (MTT, 72 h), HCT116. Type of data set: cell-based. The conditions noted are these: Homo sapiens, HCT-116, HCT116 cells. The method, then:
as §2

Data set [5] deals with HCT-116 xenograft. In words: In vivo antitumor activity, HCT-116 xenograft in nude mice. On the set-up: species or system Balb/c-nude mice. To be noted: intraperitoneal once daily, 21 days, 32d 5 mg/kg, BVD-523 5 mg/kg, GDC-0980 1 mg/kg; for TGI (tumor growth inhibitory rate): nude mice, combination 2.5 mg/kg + 0.5 mg/kg. The method, then:
Male five-week-old Balb/c-nude mice (18–20 g) were injected subcutaneously with HCT-116 cells (5 × 10^7/mL cells suspended in Matrigel Matrix). […] All mice were administered by intraperitoneal q.d. The tumor volumes were measured using electronic digital calipers every 3 days and were calculated as 1/2 length × width × width.

Chain of PI3Kα (P42336 whole entry): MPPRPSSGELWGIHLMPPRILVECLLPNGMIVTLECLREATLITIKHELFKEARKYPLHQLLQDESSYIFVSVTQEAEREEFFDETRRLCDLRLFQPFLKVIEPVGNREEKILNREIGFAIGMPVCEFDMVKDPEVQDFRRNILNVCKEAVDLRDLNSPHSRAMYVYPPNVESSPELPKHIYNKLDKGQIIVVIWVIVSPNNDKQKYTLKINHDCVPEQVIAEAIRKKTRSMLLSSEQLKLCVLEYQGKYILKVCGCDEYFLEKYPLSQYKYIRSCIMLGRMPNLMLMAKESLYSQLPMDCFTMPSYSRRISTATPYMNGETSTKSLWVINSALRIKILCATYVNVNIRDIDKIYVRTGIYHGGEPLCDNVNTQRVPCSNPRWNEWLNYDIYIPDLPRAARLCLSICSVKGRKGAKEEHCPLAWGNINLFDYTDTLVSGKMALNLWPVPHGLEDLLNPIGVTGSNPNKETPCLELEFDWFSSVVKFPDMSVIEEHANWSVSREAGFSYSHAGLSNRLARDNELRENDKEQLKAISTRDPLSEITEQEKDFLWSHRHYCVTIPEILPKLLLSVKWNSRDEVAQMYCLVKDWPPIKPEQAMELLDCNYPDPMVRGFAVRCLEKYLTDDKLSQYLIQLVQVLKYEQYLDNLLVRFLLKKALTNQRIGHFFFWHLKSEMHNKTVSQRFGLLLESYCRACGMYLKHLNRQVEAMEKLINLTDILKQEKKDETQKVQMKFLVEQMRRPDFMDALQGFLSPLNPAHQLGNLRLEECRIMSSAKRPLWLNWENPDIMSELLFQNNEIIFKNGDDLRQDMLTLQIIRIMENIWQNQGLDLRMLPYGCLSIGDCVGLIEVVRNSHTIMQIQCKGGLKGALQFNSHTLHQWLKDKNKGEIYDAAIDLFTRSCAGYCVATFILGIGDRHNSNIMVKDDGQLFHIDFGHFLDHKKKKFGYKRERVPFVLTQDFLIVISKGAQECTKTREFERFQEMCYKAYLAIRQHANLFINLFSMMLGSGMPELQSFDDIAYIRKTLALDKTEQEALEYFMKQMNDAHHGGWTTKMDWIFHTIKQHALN
Chain of PI3Kα (P27986 whole entry partner): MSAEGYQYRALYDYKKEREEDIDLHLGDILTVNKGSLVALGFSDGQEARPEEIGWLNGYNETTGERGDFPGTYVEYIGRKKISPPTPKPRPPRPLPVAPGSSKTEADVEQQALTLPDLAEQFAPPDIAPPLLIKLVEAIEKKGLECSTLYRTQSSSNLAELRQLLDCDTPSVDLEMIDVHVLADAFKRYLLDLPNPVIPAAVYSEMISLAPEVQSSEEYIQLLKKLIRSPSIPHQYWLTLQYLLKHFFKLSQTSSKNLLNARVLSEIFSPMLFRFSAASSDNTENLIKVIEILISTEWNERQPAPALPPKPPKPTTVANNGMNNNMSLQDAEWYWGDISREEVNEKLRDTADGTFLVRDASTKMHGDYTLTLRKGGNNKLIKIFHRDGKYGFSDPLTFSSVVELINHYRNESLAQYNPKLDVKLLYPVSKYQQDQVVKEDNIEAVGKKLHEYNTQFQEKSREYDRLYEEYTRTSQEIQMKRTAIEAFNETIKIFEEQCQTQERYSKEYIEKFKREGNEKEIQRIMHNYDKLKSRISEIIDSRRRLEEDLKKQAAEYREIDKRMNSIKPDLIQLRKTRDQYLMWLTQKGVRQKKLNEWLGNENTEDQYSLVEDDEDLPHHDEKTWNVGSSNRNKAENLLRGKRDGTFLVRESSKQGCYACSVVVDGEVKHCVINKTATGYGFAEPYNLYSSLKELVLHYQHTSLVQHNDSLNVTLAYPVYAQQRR
Chain of ERK 2 (P28482 whole entry): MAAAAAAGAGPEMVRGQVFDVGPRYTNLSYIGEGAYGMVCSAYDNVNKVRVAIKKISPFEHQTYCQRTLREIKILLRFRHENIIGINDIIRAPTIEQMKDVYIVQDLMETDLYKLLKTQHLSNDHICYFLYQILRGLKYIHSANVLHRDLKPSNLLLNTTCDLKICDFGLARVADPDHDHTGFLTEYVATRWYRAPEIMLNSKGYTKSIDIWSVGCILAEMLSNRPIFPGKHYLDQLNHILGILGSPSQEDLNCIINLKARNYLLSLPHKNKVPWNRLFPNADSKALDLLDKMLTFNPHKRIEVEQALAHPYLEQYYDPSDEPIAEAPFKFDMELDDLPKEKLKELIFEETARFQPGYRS

“1-Cyclopentyl-3-(7-(2-methylpyridin-4-yl)pyrido[3,2-d]pyrimidin-2-yl)urea [32k]”: the “ERK2 Inhibition% (100 nM)” value in data set [1] (100 nM compound) was 66.5%. The “PI3Kα Inhibition% (100 nM)” value in data set [2] (100 nM compound) came out at 15.3%.

Regarding `Cc1cc(-c2n[nH]c3nc(NC(=O)NCc4ccccc4)ncc23)ccn1` [16a, 1-Benzyl-3-(3-(2-methylpyridin-4-yl)-1H-pyrazolo[3,4-d]pyrimidin-6-yl)urea], the inhibition at 1 µM in data set [1] was found to be 98.3%; in data set [2], 8.7%.

Regarding `Cc1cc(-c2n[nH]c3nc(NC(=O)NC4CCCC4)ncc23)ccn1` [16b, 1-Cyclopentyl-3-(3-(2-methylpyridin-4-yl)-1H-pyrazolo[3,4-d]pyrimidin-6-yl)urea], the results for the inhibition at 1 µM in data set [1] and in data set [2] were 84.8% and 27.4%, respectively.

For `Cn1cc(-c2n[nH]c3nc(NC(=O)NCc4ccccc4)ncc23)cn1` [16c, 1-Benzyl-3-(3-(1-methyl-1H-pyrazol-4-yl)-1H-pyrazolo[3,4-d]pyrimidin-6-yl)urea], the inhibition at 1 µM worked out at 97.2% in data set [1] and 1.8% in data set [2].

`Cn1cc(-c2n[nH]c3nc(NC(=O)NC4CCCC4)ncc23)cn1` [16d, 1-Cyclopentyl-3-(3-(1-methyl-1H-pyrazol-4-yl)-1H-pyrazolo[3,4-d]pyrimidin-6-yl)urea]: the inhibition at 1 µM was 79.5% in data set [1] and 4% in data set [2].

As to `Cc1cc(-c2cnc3cnc(NC(=O)NC4CCCC4)nc3c2)ccn1` [32b, 1-Cyclopentyl-3-(7-(2-methylpyridin-4-yl)pyrido[3,2-d]pyrimidin-2-yl)urea], the inhibition at 0.1 µM in data set [1] (100 nM compound) is 53.7%; in data set [2] (100 nM compound), 10.5%.

As for `O=C(Nc1ncc2ncc(-c3cccc(OC(F)(F)F)c3)cc2n1)NC1CCCC1` [32c, 1-Cyclopentyl-3-(7-(3-(trifluoromethoxy)phenyl)pyrido[3,2-d]pyrimidin-2-yl)urea], the inhibition at 0.1 µM was 1.6% in data set [1] (100 nM compound) and -11.3% in data set [2] (100 nM compound).

Consider `O=C(Nc1ncc2ncc(-c3ccnc(F)c3)cc2n1)NC1CCCC1` [32e, 1-Cyclopentyl-3-(7-(2-fluoropyridin-4-yl)pyrido[3,2-d]pyrimidin-2-yl)urea], for which the inhibition at 0.1 µM stood at 35.4% in data set [1] (100 nM compound) and 7% in data set [2] (100 nM compound).

As to `O=C(Nc1ncc2ncc(C3=CCNCC3)cc2n1)NC1CCCC1` [32f, 1-Cyclopentyl-3-(7-(1,2,3,6-tetrahydropyridin-4-yl)pyrido[3,2-d]pyrimidin-2-yl)urea hydrochloride], the inhibition at 0.1 µM in data set [1] (100 nM compound) is 0.4%; in data set [2] (100 nM compound), -8.8%.

`Cn1cc(-c2cnc3cnc(NC(=O)NCc4ccccc4)nc3c2)cn1` [32g, 1-Benzyl-3-(7-(1-methyl-1H-pyrazol-4-yl)pyrido[3,2-d]pyrimidin-2-yl)urea]: the IC50 is 83 nM in data set [1], 824 nM in data set [2], 2270 nM in data set [3] and 10000 nM in data set [4]. The inhibition at 0.1 µM in data set [1] (100 nM compound) was determined as 55.2%; in data set [2] (100 nM compound), 32.4%.

For the molecule `Cn1cc(-c2cnc3cnc(NC(=O)Nc4ccccc4)nc3c2)cn1` [32h, 1-(7-(1-Methyl-1H-pyrazol-4-yl)pyrido[3,2-d]pyrimidin-2-yl)-3-phenylurea], the inhibition at 0.1 µM in data set [1] (100 nM compound) is 17.2%; in data set [2] (100 nM compound), 24.9%.

For the molecule `CCNC(=O)Nc1ncc2ncc(-c3cnn(C)c3)cc2n1` [32i, 1-Ethyl-3-(7-(1-methyl-1H-pyrazol-4-yl)pyrido[3,2-d]pyrimidin-2-yl)urea], the inhibition at 0.1 µM in data set [1] (100 nM compound) was found to be 22.1%; in data set [2] (100 nM compound) it was 33.4%.

`Cn1cc(-c2cnc3cnc(NC(=O)NCCN4CCOCC4)nc3c2)cn1` [32j, 1-(7-(1-Methyl-1H-pyrazol-4-yl)pyrido[3,2-d]pyrimidin-2-yl)-3-(2-morpholinoethyl)urea]: the inhibition at 0.1 µM was 6.2% in data set [1] (100 nM compound) and 15.1% in data set [2] (100 nM compound).

As for `CC(C)Nc1cc(-c2c[nH]c(C(=O)N[C@H](CO)c3cccc(Cl)c3)c2)c(Cl)cn1` [BVD-523, reference compound], the inhibition at 0.1 µM in data set [1] (100 nM compound) is 97.7%. The inhibition at 1 µM in data set [1] was 97.7%. The molecule further returned a half-inhibitory concentration (IC50) in data set [3] of 18000 nM. Moreover, 321 nM corresponded to half-maximal inhibition in data set [4] (IC50). In data set [5], the “body weight of nude mice during treatment” value is recorded as “losing” and the “TGI (tumor growth inhibitory rate)” value stood at 50%.

In data set [3], `Cc1c(CN2CCN(C(=O)[C@H](C)O)CC2)sc2c(N3CCOCC3)nc(-c3cnc(N)nc3)nc12` [GDC-0980, reference compound] came in with an IC50 of 230 nM. In addition, the midpoint of inhibition in data set [4], the IC50, lay at 1060 nM. Besides, in data set [5], the “body weight of nude mice during treatment” value was “losing” and the “TGI (tumor growth inhibitory rate)” value is listed as 46%.

As to `Cn1cc(-c2cnc3nc(NC(=O)NC4CCCC4)ncc3c2)cn1` [compound 24, 1-Cyclopentyl-3-(6-(1-methyl-1H-pyrazol-4-yl)pyrido[2,3-d]pyrimidin-2-yl)urea], the values for the inhibition at 1 µM in data set [1] and in data set [2] were 1.8% and 15.1%, respectively.
